Experimental data: patent publication EP0748311B1, “THERAPEUTIC BENZONITRILES” (THE WELLCOME FOUNDATION LIMITED, priority 1994, dated 1995)
Like-named read-outs stand apart in the source and are kept apart here.

Legend:
[1] = tested on: HIV-1 (strain 3B); assay: HIV assay: reversal of the cytopathic effect of HIV infection in MT4 cells (propidium iodide dye uptake); type: cell-based; conditions: Human immunodeficiency virus 1, 120 h, Anti-HIV-1 activity, day 5 post infection
Procedure: Anti-HIV activity of compounds of the invention was determined using the method of Averett D.R., J.Virol. Methods, […], 23, 263-276, by measuring the ability of the compound to reverse the cytopathic effect of HIV infection. This was determined by a quantitative assessment of cell growth monitored at the fifth day post infection by a propidium iodide dye uptake test. MT4 cells were incubated with 100XTCID50 of HIV-1 (strain 3B) or HIV-2 (strain ZY) for one hour prior to addition of the compound in six different concentrations varying from 2 to 200 µM. The cells were allowed to incubate for five days at 37°C. On day 5, NP-40, a detergent, was added to a final concentration of 0.5% immediately prior to analysis. Cell number was determined using a method which measures the fluorescence of a dye (propidium iodide) which binds to DNA. Since the amount of DNA is directly proportional to cell number, this fluorescence assay is an indication of cell growth. While uninfected cells double in cell number several times during the five days duration of the assay, HIV-infected cells grow very little, if at all. A compound which reverses the cytopathic effect of HIV would allow for rapid cell growth, approaching that of the mock-infected cells. […]

[2] = tested on: male Lewis rats; assay: Carrageenan pleurisy assay (4 hour); type: in vivo; conditions: 4 h after carrageenan, relative to solvent (vehicle) control animals; for % INHIBITION CELLS: inflammatory cells (neutrophils) in pleural exudate; for % INHIBITION EDEMA: pleural edema
Procedure: The antiinflammatory activity of compounds of the invention was determined by the procedure of Vinegar, R. et al., Proc. Soc. Exp. Biol. Med., 1981, 168, 24-32, using male Lewis rats of 150 ± 20 grams. The carrageenan dose was 0.075 mg/rat. Pleural exudate was harvested four hours after injection of carageenan. Acute antiinflammatory activity was determined by inhibition of pleural edema and infammatory cells (neutrophils) from a negative (vehicle) control group.
Acute Anti-inflammatory Activity of Compounds in the 4 Hour Carrageenan Pleurisy Assay in Rats

[3] = Cytotoxicity: inhibition of cell growth; type: cell-based; conditions: human
Procedure: Compounds of the invention were tested for the inhibition of growth of human T-cells (Molt 4), B-cells (IM9) and CEM cells by the method of Averett, D.R., J. Virol. Methods, 23, 263-276 (1989). Cells were grown as described in Prus, K.L., et al., Cancer Res., 50(6), 1817-1821 (1990).

Row | IC50 [1] [nM] | SMILES | % INHIBITION CELLS ([2]; @ 25 MG/KG (IP)) [%] | % INHIBITION EDEMA ([2]; @ 25 MG/KG (IP)) [%] | % INHIBITION CELLS ([2]; @ 50 MG/KG (PO)) [%] | % INHIBITION EDEMA ([2]; @ 50 MG/KG (PO)) [%] | viability at 100 µM ([3]; cem cells, read-out: % of Cells Surviving at 100 µM) [%] | viability at 100 µM ([3]; im9 cells, read-out: % of Cells Surviving at 100 µM) [%] | viability at 100 µM ([3]; molt 4 cells, Molt4, read-out: % of Cells Surviving at 100 µM) [%]
1 | 920 ± 40 | COc1cccc(S(=O)(=O)c2cccc(N)c2C#N)c1 [Example 2, 2-Amino-6-[(3-methoxyphenyl)sulfonyl]benzonitrile] | – | – | – | – | – | – | –
2 | 14 ± 1 | Cc1cc(C)cc(S(=O)(=O)c2cccc(N)c2C#N)c1 [Example 4, 2-Amino-6-[(3,5-dimethylphenyl)sulfonyl]benzontrile] | 0 | 5 | 29 | 31 | 70 | 97 | 91
